Columns and labels:
H1975 cells = test: Inhibition of cancer cell growth, MTT assay, H1975; details: Homo sapiens, NCI-H1975, 72 h, read-out: IC50 in H1975 cells
Description: Inhibition of cell growth by compounds was measured using MTT assay (Mosmann, T., Journal of Immunological Methods, 1983, 65, 55-63). Tumor cell lines were purchased from ATCC (American Type Culture Collection, Manassas, Va.). All cell lines were maintained in RPMI 1640 (Hyclone) supplemented with 10% fetal bovine serum (FBS, Hyclone), glutamine (2 mM, Hyclone), and antibiotics (penicillin 100 U/mL and streptomycin 50 μg/mL) at 37° C. in a humidified atmosphere of 5% CO2 in air. Taxol (as a positive control. Sigma) and compounds were dissolved in DMSO (Sigma), and the final concentration of DMSO in the medium was 1%. Tumor cells were plated in 96-well plates at densities of about 4000 cells/well of a 96-well plate and allowed to adhere/grow for 24 h. They were then treated with various concentrations of drug for 72 h, 3-(4,5-Dimethylthiazol-2-yl)-2,5-diphenyltetrazolium bromide (MTT, Sigma) was used to determine the number of viable cells at the time of compound addition and the number of cells remaining after 72 h compound exposure. The number of cells remaining after 72 h was compared to the number of viable cells at the time of compound addition by measuring the absorbance at 570 nm, allowing for the calculation of growth inhibition.
All concentrations of compounds were tested in triplicate and controls were averaged over 4 wells. IC50 was calculated by plotting the concentration of compound vs the percentage of inhibition in treated wells using GraphPad Prism 5.

EGFR (ErbB1) = EGFR (ErbB1) (Homo sapiens (Human), UniProt P00533); test: Z'-LYTE kinase inhibition assay, EGFR; format: biochemical; details: for inhibition at 0.041 µM: read-out: % inhibition against EGFR (Compound at 0.041 μM)
Outline: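 Z'-LYTE FRET assay run with 1.1-5.25 ng EGFR and 2 μM peptide substrate in 50 mM HEPES pH 7.5, 10 mM MgCl2, 2 mM MnCl2, 1 mM EGTA, 1 mM DTT, 0.01% BRIJ-35, 1% DMSO. Kinase reaction 60 min at room temperature, then 60 min development; IC50 from 10-point 3-fold titrations.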

A431 cells = test: cells; details: Homo sapiens, A-431, 72 h, read-out: IC50 in A431 cells
EGFR (ErbB1) T790M L858R = EGFR (ErbB1) T790M L858R (Homo sapiens (Human), UniProt P00533, L858R/T790M); test: Z'-LYTE kinase inhibition assay, EGFR L858R/T790M; format: biochemical; details: for inhibition at 0.0137 µM: read-out: % inhibition against EGFR L858R/T790M (Compound at 0.0137 μM); for IC50: read-out: IC50 against EGFR L858R/T790M
Sequence of EGFR (ErbB1) T790M L858R (P00533 25-1210 T790M/L858R): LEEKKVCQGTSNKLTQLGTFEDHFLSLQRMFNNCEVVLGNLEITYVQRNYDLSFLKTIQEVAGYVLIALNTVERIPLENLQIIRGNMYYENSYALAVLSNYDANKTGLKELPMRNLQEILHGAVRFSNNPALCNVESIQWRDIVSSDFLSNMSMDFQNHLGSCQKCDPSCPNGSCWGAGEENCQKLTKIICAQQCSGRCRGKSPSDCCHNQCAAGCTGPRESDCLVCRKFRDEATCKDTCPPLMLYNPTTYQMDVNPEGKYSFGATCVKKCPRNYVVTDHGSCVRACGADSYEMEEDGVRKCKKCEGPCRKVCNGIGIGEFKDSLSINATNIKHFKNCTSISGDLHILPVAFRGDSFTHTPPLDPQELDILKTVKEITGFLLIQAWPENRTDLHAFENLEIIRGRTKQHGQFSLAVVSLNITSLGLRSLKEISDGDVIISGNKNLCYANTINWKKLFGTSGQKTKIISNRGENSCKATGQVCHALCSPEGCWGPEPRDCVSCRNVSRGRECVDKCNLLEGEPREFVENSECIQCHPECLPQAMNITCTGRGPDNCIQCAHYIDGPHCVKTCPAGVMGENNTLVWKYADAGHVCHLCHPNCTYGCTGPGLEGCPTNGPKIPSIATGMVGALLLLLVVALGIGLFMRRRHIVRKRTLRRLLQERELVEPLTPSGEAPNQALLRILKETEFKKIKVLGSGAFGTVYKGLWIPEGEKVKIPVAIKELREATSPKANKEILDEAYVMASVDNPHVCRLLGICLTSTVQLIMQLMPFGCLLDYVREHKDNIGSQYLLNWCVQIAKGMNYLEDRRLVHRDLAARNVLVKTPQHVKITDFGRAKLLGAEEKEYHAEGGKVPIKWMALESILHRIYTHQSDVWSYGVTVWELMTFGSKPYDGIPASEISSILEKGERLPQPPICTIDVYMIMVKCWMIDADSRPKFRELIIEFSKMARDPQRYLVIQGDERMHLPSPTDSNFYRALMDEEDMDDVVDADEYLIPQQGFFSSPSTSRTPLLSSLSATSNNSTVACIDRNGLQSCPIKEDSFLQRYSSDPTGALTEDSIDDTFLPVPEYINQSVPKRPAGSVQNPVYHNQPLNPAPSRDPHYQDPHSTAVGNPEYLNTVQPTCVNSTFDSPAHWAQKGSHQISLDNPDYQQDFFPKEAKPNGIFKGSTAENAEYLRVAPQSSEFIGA
Outline: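 Z'-LYTE FRET peptide assay at 1% DMSO, 10-point 3-fold titrations; kinase/peptide mix in 50 mM HEPES pH 6.5, 0.01% BRIJ-35, 10 mM MgCl2, 1 mM EGTA, 0.02% NaN3. Kinase reaction ran 60 min at room temperature, followed by 60 min development and a fluorescence read. IC50 derived from the concentration series.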

Sequence of EGFR (ErbB1) (P00533 25-1210): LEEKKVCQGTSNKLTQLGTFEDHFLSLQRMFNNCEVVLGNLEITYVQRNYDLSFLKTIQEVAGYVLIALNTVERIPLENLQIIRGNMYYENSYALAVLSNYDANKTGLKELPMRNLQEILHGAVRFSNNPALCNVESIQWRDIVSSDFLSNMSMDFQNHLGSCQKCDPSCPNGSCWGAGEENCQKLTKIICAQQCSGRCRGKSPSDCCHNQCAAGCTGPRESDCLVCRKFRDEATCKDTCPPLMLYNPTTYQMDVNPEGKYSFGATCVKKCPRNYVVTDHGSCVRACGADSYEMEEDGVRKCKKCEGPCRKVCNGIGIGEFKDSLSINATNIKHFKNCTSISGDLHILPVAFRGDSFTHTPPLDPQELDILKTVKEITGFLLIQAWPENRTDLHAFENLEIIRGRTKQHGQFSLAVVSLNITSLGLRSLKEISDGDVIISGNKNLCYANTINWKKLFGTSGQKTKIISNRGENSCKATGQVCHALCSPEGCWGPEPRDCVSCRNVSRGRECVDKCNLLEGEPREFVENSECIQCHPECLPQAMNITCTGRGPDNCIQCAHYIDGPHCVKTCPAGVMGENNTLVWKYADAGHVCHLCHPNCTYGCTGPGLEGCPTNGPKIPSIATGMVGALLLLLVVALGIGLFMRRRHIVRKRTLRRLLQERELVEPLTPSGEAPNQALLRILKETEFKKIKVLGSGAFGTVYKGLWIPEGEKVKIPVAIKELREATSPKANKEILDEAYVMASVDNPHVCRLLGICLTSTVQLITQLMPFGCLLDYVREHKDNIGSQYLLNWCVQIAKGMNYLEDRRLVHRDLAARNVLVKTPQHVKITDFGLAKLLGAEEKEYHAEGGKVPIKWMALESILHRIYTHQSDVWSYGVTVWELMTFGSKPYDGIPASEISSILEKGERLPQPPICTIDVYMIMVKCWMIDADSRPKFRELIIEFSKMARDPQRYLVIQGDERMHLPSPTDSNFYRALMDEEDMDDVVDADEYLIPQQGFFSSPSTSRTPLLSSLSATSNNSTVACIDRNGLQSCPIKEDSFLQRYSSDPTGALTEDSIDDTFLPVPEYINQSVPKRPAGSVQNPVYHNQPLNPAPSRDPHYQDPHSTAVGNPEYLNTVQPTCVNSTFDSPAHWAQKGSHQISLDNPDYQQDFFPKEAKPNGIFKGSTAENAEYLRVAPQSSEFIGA

SMILES | IC50 (H1975 cells) [µM] | inhibition at 0.041 µM (EGFR (ErbB1)) [%] | IC50 (A431 cells) [µM] | inhibition at 0.0137 µM (EGFR (ErbB1) T790M L858R) [%] | IC50 (EGFR (ErbB1) T790M L858R) [µM] | IC50 (EGFR (ErbB1); read-out: IC50 against EGFR) [µM]
C=CC(=O)Nc1cccc(-c2cccc3cnc(Nc4ccc(N5CCN(C)CC5)nc4)nc23)c1F [Example C048, N-(2-fluoro-3-(2-((6-(4-methylpiperazin-1-yl)pyridin-3-yl)amino)quinazolin-8-yl)phenyl)acrylamide] | < 0.1 | > 50 | > 0.5 | > 50 | < 0.1 | < 0.1
C=CC(=O)Nc1cccc(-c2cccc3cnc(Nc4ccc(N5CCN(C)CC5)cc4)nc23)c1OC [Example C063, N-(2-methoxy-3-(2-((4-(4-methylpiperazin-1-yl)phenyl)amino)quinazolin-8-yl)phenyl)acrylamide] | < 0.1 | > 50 | > 0.5 | > 50 | < 0.1 | –
C=CC(=O)Nc1cccc(-c2cccc3cnc(Nc4ccc(OC5CCN(CCF)CC5)cc4)nc23)c1 [Example C136, N-(3-(2-((4-((1-(2-fluoroethyl)piperidin-4-yl)oxy)phenyl)amino)quinazolin-8-yl)phenyl)acrylamide] | < 0.1 | < 50 | < 0.1 | > 50 | – | –
C=CC(=O)Nc1cncc(-c2cccc3cnc(Nc4ccc(N5CCN(C)CC5)nc4)nc23)c1 [Example C047, N-(5-(2-((6-(4-methylpiperazin-1-yl)pyridin-3-yl)amino)quinazolin-8-yl)pyridin-3-yl)acrylamide] | 0.1 to 0.5 | > 50 | > 0.5 | > 50 | – | –
C=CC(=O)Nc1cccc(-c2cccc3cnc(Nc4ccc(OC5CN(CCF)C5)cc4)nc23)c1 [Example C078, N-(3-(2-((4-((1-(2-fluoroethyl)azetidin-3-yl)oxy)phenyl)amino)quinazolin-8-yl)phenyl)acrylamide] | < 0.1 | > 50 | > 0.5 | > 50 | < 0.1 | –
C=CC(=O)Nc1cccc(-c2cccc3cnc(Nc4ccc(NC5CCN(CCF)CC5)cc4)nc23)c1 [Example C138, N-(3-(2-((4-((1-(2-fluoroethyl)piperidin-4-yl)amino)phenyl)amino)quinazolin-8-yl)phenyl)acrylamide] | < 0.1 | > 50 | 0.1 to 0.5 | > 50 | < 0.1 | –
C=CC(=O)Nc1cccc(-c2cccc3cnc(Nc4ccc(N5CCN(C)CC5)cc4)nc23)c1C#N [Example C068, N-(2-cyano-3-(2-((4-(4-methylpiperazin-1-yl)phenyl)amino)quinazolin-8-yl)phenyl)acrylamide] | 0.1 to 0.5 | > 50 | > 0.5 | > 50 | < 0.1 | –
C=CC(=O)Nc1cccc(-c2cccc3cnc(Nc4ccc(OC5CCN(C)CC5F)cc4)nc23)c1F (centres unmarked) [Example C080, N-(2-fluoro-3-(2-((4-((3-fluoro-1-methylpiperidin-4-yl)oxy)phenyl)amino)quinazolin-8-yl)phenyl)acrylamide] | < 0.1 | > 50 | 0.1 to 0.5 | > 50 | < 0.1 | –
C=CC(=O)Nc1cccc(-c2cccc3cnc(Nc4ccc(N5CCN(C)CC5)cc4Cl)nc23)c1 [Example C043, N-(3-(2-((2-chloro-4-(4-methylpiperazin-1-yl)phenyl)amino)quinazolin-8-yl)phenyl)acrylamide] | 0.1 to 0.5 | > 50 | > 0.5 | > 50 | – | –
C=CC(=O)Nc1cccc(-c2cccc3cnc(Nc4ccc(N5CCN(C)CC5)c(C#N)c4)nc23)c1 [Example C074, N-(3-(2-((3-cyano-4-(4-methylpiperazin-1-yl)phenyl)amino)quinazolin-8-yl)phenyl)acrylamide] | 0.1 to 0.5 | < 50 | 0.1 to 0.5 | > 50 | < 0.1 | –

More lines, now with the values ahead:

IC50 (H1975 cells) [µM] | inhibition at 0.041 µM (EGFR (ErbB1)) [%] | IC50 (A431 cells) [µM] | inhibition at 0.0137 µM (EGFR (ErbB1) T790M L858R) [%] | IC50 (EGFR (ErbB1) T790M L858R) [µM] | IC50 (EGFR (ErbB1); read-out: IC50 against EGFR) [µM] | SMILES
< 0.1 | > 50 | 0.1 to 0.5 | > 50 | < 0.1 | – | C=CC(=O)Nc1cccc(-c2cccc3cnc(Nc4ccc(N5CCN(C)CC5)cc4)nc23)c1F [Example C045, N-(2-fluoro-3-(2-((4-(4-methylpiperazin-1-yl)phenyl)amino)quinazolin-8-yl)phenyl)acrylamide]
< 0.1 | < 50 | > 0.5 | > 50 | < 0.1 | – | C=CC(=O)Nc1cccc(-c2cccc3cnc(Nc4ccc(N5CCN(CCF)CC5)cc4)nc23)c1F [Example C061, N-(2-fluoro-3-(2-((4-(4-(2-fluoroethyl)piperazin-1-yl)phenyl)amino)quinazolin-8-yl)phenyl)acrylamide]
0.1 to 0.5 | < 50 | > 0.5 | < 50 | – | – | C=CC(=O)Nc1cccc(-c2cccc3cnc(Nc4ccc(N5CCN(CC(F)F)CC5)cc4)nc23)c1 [Example C056, N-(3-(2-((4-(4-(2,2-difluoroethyl)piperazin-1-yl)phenyl)amino)quinazolin-8-yl)phenyl)acrylamide]
< 0.1 | > 50 | < 0.1 | > 50 | – | – | C=CC(=O)Nc1cccc(-c2cccc3cnc(Nc4ccc(N5CCN(C)CC5)c(F)c4)nc23)c1 [Example C069, N-(3-(2-((3-fluoro-4-(4-methylpiperazin-1-yl)phenyl)amino)quinazolin-8-yl)phenyl)acrylamide]
< 0.1 | < 50 | > 0.5 | > 50 | – | – | C=CC(=O)Nc1cncc(-c2cccc3cnc(Nc4ccc(N5CCN(CCF)CC5)cc4)nc23)c1 [Example C058, N-(5-(2-((4-(4-(2-fluoroethyl)piperazin-1-yl)phenyl)amino)quinazolin-8-yl)pyridin-3-yl)acrylamide]
0.1 to 0.5 | > 50 | 0.1 to 0.5 | > 50 | < 0.1 | – | C=CC(=O)Nc1cccc(-c2c(F)ccc3cnc(Nc4ccc(N5CCN(C)CC5)cc4)nc23)c1 [Example C087, N-(3-(7-fluoro-2-((4-(4-methylpiperazin-1-yl)phenyl)amino)quinazolin-8-yl)phenyl)acrylamide]
0.1 to 0.5 | > 50 | 0.1 to 0.5 | > 50 | < 0.1 | – | C=CC(=O)Nc1cc(-c2cccc3cnc(Nc4ccc(N5CCN(C)CC5)cc4)nc23)ccn1 [Example C057, N-(4-(2-((4-(4-methylpiperazin-1-yl)phenyl)amino)quinazolin-8-yl)pyridin-2-yl)acrylamide]
